Experimental data taken from EP1370276B1, “INTERCELLULAR COMMUNICATION FACILITATING COMPOUNDS AND THEIR MEDICAL USE” (Zealand Pharma A/S, priority 2001, dated 2002).
Read-outs that look alike come from different tables or passages of the source.

What was measured:
[1] = molecular target: murine heart tissue preparations; experiment: Displacement of [125I]AAP10 from murine heart tissue preparations; format: binding, mice
Protocol: Hearts are excised from mice (Balb/cJ, 20 g), rinsed twice in ice-cold (0°C) 0.32 M sucrose and homogenized on ice in 10 volumes of sucrose with an Ultra Turrax homogeniser (1000 rpm) for 2 minutes. The homogenate is centrifuged at 1000 gmea" for 10 minutes at 4° C and the supernatant collected and filtrated through 4 layers of gauze. The filtrate is then centrifuged at 50,000 gmean for 45 min at 4° C and the pellet resuspended in 10 volorg. wet weight ice-cold distilled water and incubated for 60 min at 0° C and re-centrifuged at 50,000 gmean at 45 min at 4° C. The resulting pellet is resuspended in 2 vol org. wet weight of PBS (Phosphate Buffered Saline) and stored at - 80° C until use.

human osteoblastic cells = experiment: Intercellular calcium waves after mechanical stimulation, human osteoblastic cells; format: cell-based
Protocol: Human osteblast cells (hOB): Cells were isolated from human bone marrow obtained by puncture of the posterior iliac spine of healthy volunteers (aged 20-36): 10-15 ml marrow material was collected in 15 ml PBS+Ca,Mg (Life Technologies, Cat.No. 14040) with 100 U/ml Heparin (Sigma, Cat.No. H-3149). The mononuclear fraction of the marrow was isolated on a Lymphoprep gradient (Nycomed Pharma, Cat.No. 1001967), by centrifugation at 2200 rpm for 30 min. After harvesting, the mononuclear fraction was washed once with culture medium and centrifuged at 1800 rpm for 10 min. Subsequently cells were counted and plated in culture medium at 8x10^6 cells/100 mm dish. hOB medium (all reagents obtained from Life Technologies): MEM w/o Phenol Red w/ Glutamax (Cat.No. 041-93013) supplemented with 10% heat inactivated fetal calf serum (Cat.No. 10106) and 0.1% Penicillin/Streptomycin (Cat.No. 15140). Medium was changed the following day and the cells were cultured at 37°C in 5%CO2 with medium change every 7 days. After 3-4 weeks of culture the cells had reached 70% confluence. The medium was then supplemented with 100 nM Dexamethasone (Sigma, Cat.No. D-4902) for 7 days. Cells were then plated for video imaging experiments: a 25 mm #1 glass coverslip was
placed in a 35 mm dish (or each well of a 6-well multidish), cells were plated at 2.5×10^5 cells/coverslip and cultured for 2-3 days before use. […]

[2] = tested on: calcium-induced arrythmias; experiment: Calcium-induced arrhythmia model in mice (time to 2nd degree AV-block); format: in vivo; conditions: mouse, in vivo
Protocol: The antiarrhythmic effects of compounds of this invention were tested in an in vivo model of calcium-induced arrythmias according to the model of Lynch et al. ^[37]. […]. Commercial solutions of hypnorm and midazolam were diluted 1:1 in distilled water and one part diluted Hypnorm® is mixed with one part diluted midazolam.
The anaesthesia was induced by s.c. administration in a dose of […]. An i.v. cannula was inserted into the tail vein. The lead II ECG signal was recorded continuously by positioning of a stainless steel ECG electrodes on the right forelimb and on the left hind limb. The ground electrode was placed on the right hind limb. The signal was amplified (x 5.000-10.000) and filtered (0.1-150 Hz) via a Hugo Sachs Electronic model 689 ECG module. The analogue signal was digitised via a 12 bit data acquisition board (Data Translation model DT321) and sampled at 1000 Hz using the Notocord HEM 3.1 software for Windows NT. After a 10-min equilibration period, the test sample of drug was injected into the tail vein. Mice pre-treated with vehicle were tested as a measure of the control level in untreated animals. The injection volume was 100 µl in all experiments. Infusion of CaCl2 (30 mg/ml, 0.1 ml/min ≈ 100 mg/kg/min (calciumchlorid-2-hydrat, Riedel-de Haën, Germany)) was started 3 min after i.v. administration of drug or vehicle. The time lag to onset of 2nd degree AV-block was determined as the time from the start of CaCl2 infusion until the first arrhythmic event occured. An event of 2nd degree AV-block was defined as intermittent failure of the AV conduction characterised by a P-wave without the concomitant QRS complex.
Responses were expressed relative to the time until 2nd degree AV-block occurred in vehicle treated mice.

ROS 17/2.8 cells = experiment: Intercellular calcium waves after mechanical stimulation, ROS 17/2.8 cells; format: cell-based, rat; conditions: 10^-8 M, 10 minutes, after 48 hours hypoxia 3-6% O2 (2.2 cells before)
Protocol: ROS 17/2.8 cells: Cells were cultured in 100 mm dishes at 37°C with 5% CO2 and medium change every 2-3 days. ROS medium (all reagents obtained from Life Technologies): MEM (Cat.No. 31095) supplemented with 10% heat-inactivated calf serum (Cat.No. 16170), 1% NEAA (Cat.No. 11140), 1% Sodium Pyruvate (Cat.No. 11360), 1% L-Glutamine (Cat.No. 25030) and 0.1% Penicillin/Streptomycin (Cat.No. 15140). For video imaging experiments, cells were plated on coverslips at 2-3×10^5 cells/coverslip and cultured for 2-3 days before use.
The cells cultured on coverslips were loaded with 5 µM fura-2-AM (Molecular Probes, Cat.No. F-1221), for 30 minutes at 37°C, and incubated in fresh medium for 20 minutes. Coverslips were then affixed to a PDMI-2 culture chamber (Medical Systems Corp.), maintained at 37°C with superfused CO2, on a Zeiss Axiovert microscope. Intercellular calcium waves were induced by mechanical stimulation of a single cell using a borosilicate glass micro pipette affixed to an Eppendorf 5171 micromanipulator. Imaging was performed using a MetaMorph imaging system (Universal Imaging). The excitation light (340 and 380 nm) was provided by a monochromator (T.I.L.L. Photonics GmbH). Images were acquired with an intensified CCD camera (Dage MTI) and digitized with a Matrox MVP image processing board.

[3] = tested on: isolated perfused rabbit hearts; experiment: Isolated perfused rabbit heart (Langendorff), APD90 dispersion during hypokalemic ischemia; conditions: 10^-10 mol/l

For “Ac-D-Tyr-D-Pro-D-4Hyp-Gly-D-Ala-Gly-NH2 [Compound 2]”, the IC50 ([1]; displacement of 0.8 nM [125I]AAP10, filtrate, read-out: Filtrate IC50) was 3.6 nM, the IC50 ([1]; displacement of 0.8 nM [125I]AAP10, membranes, read-out: Membranes IC50) was 1.2 nM and the “average number of cells in the calcium wave” value (human osteoblastic cells; 10^-8 M, medium without glucose, after ATP desensitization (1.4 cells before)) was 2.9 cells. For the same substance, the “average number of cells in the calcium wave” value (human osteoblastic cells; 10^-8 mol/l, 10 minutes, after ATP desensitization (4.5 cells before)) was 6.2 cells, the “CaCl2 mice Score” value [2] was 3 and the “average number of cells in the calcium wave” value (ROS 17/2.8 cells) was 5.4 cells. The “increase in APD90 dispersion during hypokalemic, acute myocardial ischemia” value [3] was “prevented”.
